According to patent US20150174202A1, “Methods and Compositions for Modulating Beta Cell Proliferation” (The Board of Trustees of the Leland Stanford Junior …, priority 2011, published 2015):
“Also recorded” adds a separate entry of the source.

Columns and labels:
Type in all cases: cell-based
Ezh2 [1] = test: Ezh2/Ezh1 expression in cultured mouse islets (real-time RT-PCR, western blot); settings: 2 days; for Ezh2 mRNA levels after mitogen exposure: juvenile mouse islets exposed to insulin or prolactin; for effect of inhibitor on PDGF-AA-induced Ezh2 expression: 3 week-old mouse islets, PDGF-AA plus inhibitor
Protocol: Mouse pancreatic islets were purified as described in Chen et al. (2009) Genes Dev. 23, 975-985 and used immediately for assays described in the text. To study Ezh2 induction in cultured islets exposed to mitogens, freshly isolated islets from 2-3-week old, and 7-12-month old C57BL/6 mice were recovered and equilibrated overnight at 37° C., 5% CO2 in RPMI-1640 medium supplemented with 0.5% fetal bovine serum (FBS), 0.2% bovine albumin (BSA) and 2% penicillin/streptomycin. Afterwards, islets were distributed into microplates or dishes, and treated with recombinant human PDGF-AA, prolactin or insulin (Sigma), with or without addition of pharmacological inhibitors, including Sunitinib (Selleck), […]0126 (Sigma), LY294002 (Sigma) or U-73122 (Sigma) at the indicated concentrations. Two days later, islets were harvested for RNA or protein extraction for real-time RTPCR or western blot analyses. To detect phosphorylation of Pdgfr-α by western blot, islets were exposed to PDGF-AA (with or without indicated pharmacological inhibitors) for 90 min before islet harvesting and protein extraction. To detect in vitro islet β-cell proliferation stimulated by PDGF-AA, a final concentration of 50 μM BrdU was introduced into each culture dish 24 h before harvest, followed by standard histological processing. Immunostaining of BrdU and insulin was performed on processed islets, and β-cell proliferation rate was determined by quantifying percentage of insulin+ cells with BrdU+. Culture experiments of human islets were performed using a similar procedure described later. Total RNA from freshly isolated or cultured islets after indicated treatments were purified using the Absolutely RNA miniprep purification kit (Stratagene) according to the manufacturer's instructions. RNA concentration was measured with a RiboGreen RNA quantification assay (Invitrogen). One-step quantitative RT-PCR was performed and analysed using an ABI Prism 7300 detection system (Applied Biosystems) with TaqMan one-step RTPCR Master Mix Reagents and appropriate amounts (10-100 ng) of islet total RNA as the template. We calculated the ratio of mRNA for the gene of interest to the amount of internal control mRNA of peptidylprolyl isomerase A (cyclophilin A, PPIA), and then normalized the ratio for each gene to its median. For western blots, total islet protein was prepared from freshly isolated or cultured islets after indicated treatments as described in Chen et al. (2009) Genes Dev. 23, 975-985. Equal amounts of protein were resolved on SDS-PAGE and transferred to polyvinylidine fluoride membranes (Amersham Pharmacia) for immunoblotting with specific antibodies, including rabbit polyclonal anti-human Ezh2 (1:1,000, Millipore), rabbit polyclonal anti-phospho-PDGFR-α ([…]) (1:1,000, Santa Cruz Biotechnologies), rabbit monoclonal anti-PDGFR-α (1:1,000, Cell Signaling), mouse monoclonal anti-β-actin (1:4,000, Sigma), rabbit monoclonal anti-Akt (1:1,500, Cell Signaling), rabbit monoclonal anti-phospho-Ark ([…]) (1:1,000, Cell Signaling), rabbit monoclonal anti-p44/42 MAPK (Erk1/2) (1:1,500, Cell Signaling), rabbit monoclonal anti-phospho-p44/42 MAPK (Erk1/2) […]) (1:1,000, Cell Signaling), rabbit monoclonal anti-PLCγ1 (1:1,000, Cell Signaling) and rabbit monoclonal anti-phospho-PLCγ1 ([…]) (1:1,000, Cell Signaling). Signal was visualized using ECL detection (Amersham Pharmacia) on Kodak film after further incubation with HRP-conjugated secondary antibodies. For phospho-PDGFR-α ([…]) and PDGFR-α detection, signal was amplified by incubating the membrane with biotinylated anti-rabbit-IgG (1:2,000), followed with an incubation with HRP-avidin (1:2,000, Vector Laboratories) and then ECL visualization.

mouse islet β-cells = test: In vitro mouse islet β-cell proliferation (BrdU incorporation); settings: 3 week-old mouse islets, PDGF-AA 50 ng/ml plus inhibitor (Sunitinib 2 μM, Vargatef 5 μM), 2 days
Protocol: Mouse pancreatic islets were purified as described in Chen et al. (2009) Genes Dev. 23, 975-985 and used immediately for assays described in the text. To study Ezh2 induction in cultured islets exposed to mitogens, freshly isolated islets from 2-3-week old, and 7-12-month old C57BL/6 mice were recovered and equilibrated overnight at 37° C., 5% CO2 in RPMI-1640 medium supplemented with 0.5% fetal bovine serum (FBS), 0.2% bovine albumin (BSA) and 2% penicillin/streptomycin. Afterwards, islets were distributed into microplates or dishes, and treated with recombinant human PDGF-AA, prolactin or insulin (Sigma), with or without addition of pharmacological inhibitors, including Sunitinib (Selleck), […]0126 (Sigma), LY294002 (Sigma) or U-73122 (Sigma) at the indicated concentrations. Two days later, islets were harvested for RNA or protein extraction for real-time RTPCR or western blot analyses. To detect phosphorylation of Pdgfr-α by western blot, islets were exposed to PDGF-AA (with or without indicated pharmacological inhibitors) for 90 min before islet harvesting and protein extraction. To detect in vitro islet β-cell proliferation stimulated by PDGF-AA, a final concentration of 50 μM BrdU was introduced into each culture dish 24 h before harvest, followed by standard histological processing. Immunostaining of BrdU and insulin was performed on processed islets, and β-cell proliferation rate was determined by quantifying percentage of insulin+ cells with BrdU+. […] For measuring pancreatic β-cell mass or BrdU by morphometry, three to six mice for each group were analysed. At least five sections separated by more than 300 μm (pancreases) or 50 μm (cultured islets) were immunostained and assessed for each sample. Images were analysed with an ImagePro program by observers blinded to genotype, and pancreatic β-cell mass and percentage of BrdU+β-cells were calculated as described in Chen et al. Polycomb protein Ezh2 regulates pancreatic 6-cell Ink4a/Arf expression and regeneration in diabetes mellitus. […]

EZH2 [2] = test: EZH2/EZH1 mRNA in cultured human islets (real-time RT-PCR); settings: juvenile human islets, PDGF-AA 50 ng/ml with Sunitinib 2 μM or U0126 10 μM, 2 days
Protocol: Total RNA from freshly isolated or cultured islets after indicated treatments were purified using the Absolutely RNA miniprep purification kit (Stratagene) according to the manufacturer's instructions. RNA concentration was measured with a RiboGreen RNA quantification assay (Invitrogen). One-step quantitative RT-PCR was performed and analysed using an ABI Prism 7300 detection system (Applied Biosystems) with TaqMan one-step RTPCR Master Mix Reagents and appropriate amounts (10-100 ng) of islet total RNA as the template. We calculated the ratio of mRNA for the gene of interest to the amount of internal control mRNA of peptidylprolyl isomerase A (cyclophilin A, PPIA), and then normalized the ratio for each gene to its median. For islet studies, human islets were isolated either at Pittsburgh University Medical Center or the University of Alabama, Birmingham. Eight independent human islet preparations from juvenile donors at the age of 8 months, 1.0, 1.5, 2, 3, 4, 5 and 6 years, and three adult islet preparations from donors at the age of 39, 48 and 56 years were used in this study. After isolation, fresh islets were hand-picked and transferred to RPMI-1640 medium supplemented with 0.5% FBS, 0.2% BSA and 2% penicillin/streptomycin for an overnight recovery before experiments. […] To detect in vitro human islet β-cell proliferation stimulated by PDGF-AA, human islets were exposed to 50 μM BrdU for 24 h. Afterwards, human islets were processed in a similar way as in mouse islet studies for immunostaining of insulin, glucagon, PDX1 and BrdU. β-Cell proliferation rate was determined by quantifying percentage of insulin+ cells with BrdU+. More than 50 islets per group were counted for determining cultured human islet β-cell proliferation rate.

human islet β-cells = test: In vitro human islet β-cell proliferation (BrdU incorporation); settings: juvenile human islets, PDGF-AA 50 ng/ml with Sunitinib 2 μM or U0126 10 μM
Excerpt: For islet studies, human islets were isolated either at Pittsburgh University Medical Center or the University of Alabama, Birmingham. Eight independent human islet preparations from juvenile donors at the age of 8 months, 1.0, 1.5, 2, 3, 4, 5 and 6 years, and three adult islet preparations from donors at the age of 39, 48 and 56 years were used in this study. After isolation, fresh islets were hand-picked and transferred to RPMI-1640 medium supplemented with 0.5% FBS, 0.2% BSA and 2% penicillin/streptomycin for an overnight recovery before experiments. […] To detect in vitro human islet β-cell proliferation stimulated by PDGF-AA, human islets were exposed to 50 μM BrdU for 24 h. Afterwards, human islets were processed in a similar way as in mouse islet studies for immunostaining of insulin, glucagon, PDX1 and BrdU. β-Cell proliferation rate was determined by quantifying percentage of insulin+ cells with BrdU+. More than 50 islets per group were counted for determining cultured human islet β-cell proliferation rate.

PDGFRA [3] = test: PDGFRA expression in human islets exposed to 5-aza-C
Excerpt: (§1) The CpG tool of the UCSC genome browser (v257) identifies two CpG islands upstream of the translational start site of the mouse Pdgfra gene, spanning the regions −9040/−9610 and −5662/−5054 (FIG. 20). The more 3′ promoter-proximal CpG island at −5662/−5054 aligns well with regions associated with histone H3K4me1 and H3K4me3, marks of enhancers or cis-regulatory elements, with lesser overlap in the more 5′ CpG island at −9040/−9610. There are also two CpG islands within the −3,600 to +118 region of the human PDGFRA promoter-proximal region, and evidence exists that DNA methylation within the most 3′ CpG island regulates PDGFRA expression (Toepoel et al 2008). […] These findings indicate that DNA methylation and associated chromatin remodeling regulates expression of islet β-cell PDGFRA.

PDGFRA [4] = test: PDGFRA expression in mouse islets exposed to 5-aza-C
Excerpt: as §1

Compound: insulin
- Ezh2 mRNA levels after mitogen exposure (Ezh2 [1]): did not detectably alter
- Ezh2 mRNA levels after mitogen exposure (Ezh2 [1]; listed as Insulin): did not induce

Compound: N#CC(=C(/N)Sc1ccccc1N)/C(C#N)=C(\N)Sc1ccccc1N [U0126, reference compound]
- effect of inhibitor on PDGF-AA-induced Ezh2 expression (Ezh2 [1]): blocked; also recorded: attenuates
- effect of inhibitor on PDGF-AA-increased β-cell BrdU incorporation (mouse islet β-cells): blocked; also recorded: attenuates
- effect of inhibitor on PDGF-AA-increased EZH2 mRNA (EZH2 [2]): blocked
- effect of inhibitor on PDGF-AA-increased β-cell BrdU incorporation (human islet β-cells): eliminated

Compound: Nc1ncn([C@@H]2O[C@H](CO)[C@@H](O)[C@H]2O)c(=O)n1 [5-aza-C, 5-aza-cytidine]
- derepression of PDGFRA (PDGFRA [3]): dosage-dependent derepression; also recorded: dosage-dependent de-repression
- derepression of PDGFRA (PDGFRA [4]): dosage-dependent derepression; also recorded: dosage-dependent de-repression

Compound: COC(=O)c1ccc2c(c1)NC(=O)/C2=C(\Nc1ccc(N(C)C(=O)CN2CCN(C)CC2)cc1)c1ccccc1 [Vargatef, reference compound]
- effect of inhibitor on PDGF-AA-induced Ezh2 expression (Ezh2 [1]): eliminated
- effect of inhibitor on PDGF-AA-increased β-cell BrdU incorporation (mouse islet β-cells): eliminated
